“Also recorded” adds a separate entry of the source.
How the values were obtained:
Format in all cases: cell-based, human
[1] = test system: tHDF cells; experiment: Western blot of DNA damage response marker phospho-P53 after IR; details: treatment prior to IR; PD0332991 100 nM for 24 hours, 6 Gy
Experimental: FIG. 4A are images of Western blots of a DNA damage response marker (phospho-P53) in telomerized human diploid fibroblast (tHDF) cell lysates 3 hours after or 6 hours after a 6 gray (Gy) dose of ionizing radiation (IR) or following no IR, as indicated above the blot images. […] Actin western blot is shown as a loading control.
FIG. 4B is a bar graph showing the normalized phospho-P53 intensity in the telomerized human diploid fibroblast (tHDF) cells described in FIG. 4A.
Western Blots: Western blots were performed on cell lysates in NP-40 lysis buffer with protease inhibitors (Roche, Basel, Switzerland) and phosphatase inhibitors (Calbiochem, San Diego, Calif., United States of America) as previously described (see Ramsey et al., Cancer Res., 67, 4732-4741), using anti-p53-phospho-Ser15 (Cell Signaling Technology, Beverly, Mass., United States of America), Bax, p21, and actin-HRP (Santa Cruz Biotechnology, Inc., Santa Cruz, Calif., United States of America).

[2] = test system: tHDF cells; experiment: γH2AX after IR; details: 24 hours prior to IR; PD0332991 100 nM (6 Gy), 2BrIC 2 μM (0-8 Gy)
Text: FIG. 5A is a set of grayscale 40× images of phospho-γH2AX foci (nuclear) and phalloidin staining (cytoplasmic) of telomerized human diploid fibroblasts (tHDF) with (bottom row) and without (top row) 6 Gy ionizing radiation (IR). […] Scale bar=50 μm.
N=139 or greater for each condition; box=middle 50%, whiskers=0-25% and 75-100%. Significance determined by Kruskal-Wallis with Dunn post-hoc test for pairwise comparisons (*** p<0.0001).
FIG. 5F is a set of representative phospho-γH2AX (x-axis) dot plots after 0, 2, 4, 6, or 8 gray (Gy) of ionizing radiation with (right-hand column) or without (left-hand column) treatment with the selective cyclin-dependent kinase 4/6 (CDK4/6) inhibitor 2-bromo-12,13-dihydro-5H-indolo[2,3-a]pyrrolo[3,4]carbazole-5,6-dione (2BrIC) at 2 μM for 24 hours prior to exposure to ionizing radiation (IR). Cells that were not treated with 2BrIC were instead treated with vehicle (dimethyl sulfoxide (DMSO)) only. An increased fraction of phospho-γH2AX (x-axis) expressing cells is noted with increased doses of IR in DMSO treated cells.
γH2AX after IR: For γH2AX images, tHDF received 6 Gy IR with or without 24 hours of prior exposure to a CDK inhibitor. […] Images were analyzed for mean nuclear intensities were computed in ImageJ software (developed by the National Institutes of Health, Bethesda, Md., United States of America). […]

[3] = test system: tHDF (HS68) cells; experiment: Clonogenic assay after IR, tHDF (HS68); details: PD0332991 100 nM, 2BrIC 2 μM, CINK4 6 μM, IR 0-9 Gy
Experimental: FIG. 6A is a set of micrograph images of crystal violet stained cell cultures of cyclin-dependent kinase 4/6 (CDK4/6)-dependent cells (HS68) plated at different cell/well ratios and treated with either dimethyl sulfoxide (DMSO) as a negative control or with the selective CDK4/6 inhibitor 2-bromo-12,13-dihydro-5H-indolo[2,3-a]pyrrolo[3,4]carbazole-5,6-dione (2BrIC) at 2 μM for 24 hours prior to exposure to ionizing radiation at 0, 1.5, 3, 6, or 9 gray (Gy), as indicated.
Data plotted is the area/cell ratio of PD0332991 treated cells to dimethyl sulfoxide (DMSO) treated cells. Error bars show standard error of the mean.
FIG. 9A is a set of micrograph images of cell cultures of cyclin-dependent kinase 4/6 (CDK4/6)-dependent cells (HS68) plated at different cell/well ratios and pretreated with either dimethyl sulfoxide (DMSO) as a control or with the nonselective CDK4/6 inhibitor trans-4-[[6-ethylamino)-2-[[1-phenylmethyl)-1H-indol-5-yl]amino]-4-pyrimidinyl]amino]]-cyclohexanol (CINK4) at 6 μM for 24 hours prior to exposure to ionizing radiation at 0, 1.5, 3, 6, or 9 gray (Gy), as indicated. The plates were stained with crystal violet to visualize cell colonies.
Clonogenic Assay: The clonogenic assay was performed as previously described (see Franken et al., Nature protocols, 1, 2315-1319 (2006)) with cells plated in a six-well plate at least 6 hours prior to treatment with CDK inhibitor for 24 hours, with 6 Gy IR occurring 12 hours after initiation of CDK inhibitor exposure. Cells were grown for 16 days, washed, fixed, and stained with crystal violet. Plates were then imaged using an Odyssey infrared scanner (Li-Cor Biosciences, Lincoln, Nebr., United States of America) and quantified using the accompanying software.

For `CC(=O)c1c(C)c2cnc(Nc3ccc(N4CCNCC4)cn3)nc2n(C2CCCC2)c1=O` [PD0332991, 6-acetyl-8-cyclopentyl-5-methyl-2-(5-piperazin-1-yl-pyridin-2-ylamino)-8H-pyrido-[2,3-d]-pyrimidin-7-one], the “DNA damage response (phospho-P53) after IR” value [1] was “attenuated”, the “γH2AX formation after IR” value [2] was “attenuated” and the “clonogenic cell survival after IR (area/cell ratio relative to DMSO)” value [3] was “enhanced clonogenic cell survival”.

For `O=C1NC(=O)c2c1c1c3ccccc3[nH]c1c1[nH]c3cc(Br)ccc3c21` [Compound 2BrIC, 2-bromo-12,13-dihydro-5H-indolo[2,3-a]pyrrolo[3,4]-carbazole-5,6-dione], the “DNA damage response (phospho-P53) after IR” value [1] was “attenuated”, the “γH2AX formation after IR” value [2] was “attenuated; also recorded: potently decreases IR-induced DNA damage; also recorded: decreases the induction of phospho-γH2AX expression” and the “clonogenic cell survival after IR (area/cell ratio relative to DMSO)” value [3] was “enhanced clonogenic cell survival”.

Source: patent US20110224221A1, “HEMATOPOIETIC PROTECTION AGAINST IONIZING RADIATION USING SELECTIVE CYCLIN-DEPENDENT KINASE 4/6 INHIBITORS” (priority 2008, published 2011)
